{
  "source": "paper PMC11404609",
  "about": "“Gut microbiota-mediated C-sulfonate metabolism impairs the bioavailability and anti-cholestatic efficacy of andrographolide” (Gut Microbes, 2024)",
  "key": {"[1]": {"test_system": "ANIT-induced cholestatic liver injury", "test": "Anti-cholestatic effect in ANIT-induced cholestatic liver injury (plasma ALT, AST, TBA, TBIL, liver H&E)", "assay_type": "in vivo, mice", "conditions": "for anti-cholestatic effect: AP 200 mg/kg", "method": "To investigate the impact of gut microbiota on the anti-cholestatic effect of AP, Control and ABX mice were divided into five groups, respectively: Vehicle, AP (200 mg/kg), ANIT (50 mg/kg), ANIT+AP (200 mg/kg), and ANIT+S-AMe (100 mg/kg).\nSimilarly, to investigate the impact of C-sulfonate metabolism on the anti-cholestatic effect of AP, mice were randomly divided into two groups: p.o. group (oral administration) and i.p. group (intraperitoneal injection). The p.o. group was further divided into six subgroups: Vehicle, AP (400 mg/kg), ANIT (50 mg/kg), ANIT+AP (100 mg/kg), ANIT+AP (200 mg/kg), ANIT+AP (400 mg/kg). While the i.p. group was divided into five subgroups: Vehicle, AP (200 mg/kg), ANIT (50 mg/kg), ANIT+AP (100 mg/kg), ANIT+AP (200 mg/kg).\nAdditionally, to investigate the effect of APS reductase inhibitor on the anti-cholestatic effect of AP, mice were randomly divided into Control and Inhibitor groups, each further divided into five subgroups: Vehicle, AP (200 mg/kg), ANIT (50 mg/kg), ANIT+AP (200 mg/kg), and ANIT+S-AMe (100 mg/kg). The mice received APS reductase inhibitor bromocriptine mesylate by oral gavage (20 mg/kg, p.o.) 2 weeks before AP treatment and continued until the end of the experiment. Furthermore, to investigate the important role of FXR in the anti-cholestatic effect of AP, WT and Fxr^-/- mice were, respectively, divided into the following groups: Vehicle, ANIT (50 mg/kg), and ANIT+AP (200 mg/kg).\nIn pharmacodynamic experiments, mice were administered AP at various dosages through different routes daily for a duration of 2 weeks. Additionally, S-AMe was administered at a dosage of 100 mg/kg via intraperitoneal injection (i.p.) daily for 2 weeks. A single dose of ANIT (50 mg/kg, p.o.) was administered 48 h before euthanizing the mice. At the conclusion of each experiment, the mice were euthanized, and blood samples were collected for biochemical analysis and tissue samples for histological examination and UPLC-MS/MS analysis.\nBiochemical indicators of cholestatic liver injury, including alanine aminotransferase (ALT), aspartate aminotransferase (AST), total bile acid (TBA), and total bilirubin (TBIL), were assessed using assay kits obtained from Nanjing JianCheng Bioengineering Institute (Nanjing, China). The experimental procedures were conducted in accordance with the protocols provided by the manufacturer. Fresh liver tissues were fixed in 10% formalin, and prepared as 4-μm paraffin sections. These sections were stained with hematoxylin and eosin for examination of liver histopathology. The stained tissue sections were then observed and captured under an optical microscope for further analysis. Liver histological changes were quantified using a slightly modified scoring system published previously.[45] The scoring system comprised four histological features that were evaluated semi-quantitatively: necrosis and fibrosis (0–4), steatosis (0–3), lobular inflammation (0–2), and hepatocellular ballooning (0–2). The liver necrosis and fibrosis areas were quantified by area fraction analysis (Image J software, V1.8.0, National Institutes of Health, USA).[46]"}, "[2]": {"test": "Tissue distribution of AP and APM in mice", "assay_type": "in vivo", "method": "Control and ABX rats were orally administered a single dose of AP at 120 mg/kg. Control, ABX and germ-free C57BL/6J mice were orally administered a single dose of AP at 100 mg/kg. After 90 min of AP administration, all animals were euthanized, and blood and tissue samples were collected for subsequent analysis.\nAfter 360 min of AP treatment, all mice were euthanized, and tissue samples were collected for subsequent analysis. […]\nAn ACQUITY^TM UPLC-MS/MS system equipped with an ACQUITY^TM UPLC BEH C18 Column (50 × 2.1 mm I.D., 1.7 μm, Waters, Milford, MA, USA) was utilized for the quantification of AP and APM as previously described.[47] Briefly, the detection samples (50 μL) were mixed with 50 μL of IS (50 ng/mL). AP and APM were extracted by 400 μL cold methanol. Supernatants were dried under nitrogen stream. Then, the residue was dissolved with 50% methanol in water, centrifuged for 30 min at 13,000 rpm, and 10 µL of the supernatant was subjected to UPLC-MS/MS analysis. The mobile phases consisted of eluent A (water) and eluent B (methanol) with a gradient elution as follows: 0–0.8 min, 10% B; 0.8–1.2 min, 10–90% B; 1.2–5.0 min, 90% B; 5.0–5.5 min, 90–10% B; 5.5–7.0 min, 10% B. The flow rate was 0.3 mL/min and the injection volume of all samples was 10 μL. The quantification of AP, APM and IS was performed by UPLC-MS/MS using an MRM method with the transitions of m/z 349.1→m/z 287.2 for AP, m/z 413.2→m/z 287.2 for APM, m/z 269→m/z 133 for IS.\nAP was administered intravenously and orally to detect the production of the C-sulfonate metabolite APM. In tissue distribution experiment, rats were given AP intravenously (24 mg/kg) or orally (120 mg/kg), while mice received AP intravenously (20 mg/kg) or orally (100 mg/kg). After a 90-minute interval, the animals were sacrificed, and their liver, kidneys, small intestine, and colon were collected for analysis. In pharmacokinetic studies, rats were administered 24 mg/kg of AP intravenously or 120 mg/kg of AP by oral gavage. Blood samples were collected at predetermined time intervals (0, 5, 10, 20, 30, 40, 60, 90, 120, 180, 240, 360, and 480 min), as described, to detect the content of AP and APM by UPLC-MS/MS."}, "[3]": {"test_system": "NF-κB and JNK/MAPK pathways", "test": "RNA sequencing of liver: NF-κB and JNK/MAPK pathway genes", "assay_type": "in vivo, mice", "conditions": "ANIT+AP (200 mg/kg, i.p.) vs ANIT", "method": "RNA in liver tissue was isolated from mice treated with ANIT and ANIT+AP (200 mg/kg, i.p.) and purified by TRIzol (Invitrogen, CA). The isolated RNA was quantified using Qubit 2.0 (Thermo Fisher Scientific, USA) following the manufacturer’s protocol. Libraries were prepared using the NEBNext® UltraTM RNA Library Prep Kit for Illumina® (NEB, USA) and sequenced on a Novaseq 6000 (Illumina, USA) at Novogene’s deep sequencing facility. Mapped reads from each sample were assembled using StringTie (v1.3.3b) in a reference-based approach, and featureCounts was used to quantify mapped reads. Differential expression analysis of two conditions/groups was performed using the DESeq2 R package (1.20.0)."}},
  "note": "Entries after “also recorded” stand apart in the source; their conditions may differ.",
  "data": [
    {"smiles": "C=C1CC[C@@H]2[C@](C)(CO)[C@H](O)CC[C@@]2(C)[C@@H]1C/C=C1/C(=O)OC[C@H]1O", "note": "[AP, Andrographolide]", "values": [
      {"measurement": "effect on ANIT-induced elevation of plasma biochemical indicators, liver cell necrosis, inflammatory cell infiltration", "setting": "[1]; ABX mice (intestinal flora depleted), AP 200 mg/kg p.o., 2 weeks", "value": "markedly ameliorated"},
      {"measurement": "protective effect against ANIT-induced liver injury", "setting": "[1]; Control mice with intact intestinal flora, AP 200 mg/kg p.o., 2 weeks", "value": "weak protective effect"},
      {"measurement": "anti-cholestatic effect", "setting": "[1]; Fxr^-/- mice", "value": "completely abolished; also recorded: no protective effect"},
      {"measurement": "anti-cholestatic effect", "setting": "[1]; WT mice", "value": "superior anti-cholestatic effect; also recorded: significant effects"},
      {"measurement": "alleviation of ANIT-induced cholestatic liver injury", "setting": "[1]; mice, AP 200 mg/kg p.o. alone (inhibitor study)", "value": "did not exhibit significant alleviation"},
      {"measurement": "alleviation of ANIT-induced cholestatic liver injury", "setting": "[1]; mice, AP 200 mg/kg p.o. in combination with APS reductase inhibitor bromocriptine mesylate 20 mg/kg p.o.", "value": "notable amelioration of liver injury"},
      {"measurement": "anti-cholestatic effect vs ANIT group", "setting": "[1]; mice, intraperitoneal AP 100 mg/kg or 200 mg/kg", "value": "superior anti-cholestatic effect"},
      {"measurement": "hepatoprotective effect vs ANIT group", "setting": "[1]; mice, oral AP 400 mg/kg", "value": "significant efficacy"},
      {"measurement": "concentration of AP in tissues", "setting": "[2]; ABX-treated mice vs Control, AP 100 mg/kg oral", "value": "notably increased"},
      {"measurement": "C-sulfonate metabolism of AP", "setting": "[2]; germ-free mice, AP 100 mg/kg oral", "value": "suppressed"},
      {"measurement": "AP concentration in tissues such as the liver", "setting": "[2]; mice colonized with D. piger vs Control, AP 100 mg/kg p.o.", "value": "notable reduction"},
      {"measurement": "concentration of AP in the intestine and liver", "setting": "[2]; mice of pharmacological experiment, AP 200 mg/kg, following ABX treatment vs Control", "value": "significantly increased"},
      {"measurement": "AP levels in mouse tissues", "setting": "[2]; mice, AP 100 mg/kg p.o., Na2SO4 pre-treatment vs Control", "value": "decreased AP levels"},
      {"measurement": "AP levels in mouse tissues", "setting": "[2]; mice, AP 100 mg/kg p.o., bromocriptine mesylate pre-treatment vs Control", "value": "elevated AP levels"},
      {"measurement": "AP exposure within the small intestine and liver", "setting": "[2]; mice, AP 200 mg/kg p.o. with APS reductase inhibitor vs without", "value": "increase in AP exposure"},
      {"measurement": "clustering of NF-κB pathway genes and JNK/MAPK pathway genes", "setting": "[3]", "value": "no significant differences"}
    ]}
  ]
}
